`Cc1cccc(C)c1NC(=O)C(Cl)Br` (centres undefined) gave a melting point of 148 to 149 °C. `COC(=O)c1cccc2c1OC1CC(N=[N+]=[N-])C(O)C21` (centres undefined) showed a melting point of 150 to 152 °C. Then `Nc1nc(N)c(C(=O)n2ccnc2)nc1Cl`, with 232 to 234 °C. `Cc1cc(Oc2ccsc2C(F)(F)F)nc(-c2ccc(C(F)(F)F)cc2)c1` registered a melting point of 52.5 to 55.5 °C.

`Clc1ccc(-c2cc(C3CCN(Cc4ccccc4)CC3)no2)cc1` came in with a melting point of 112 to 114 °C.

`CC(=O)n1nc(C(N)=O)c2ccccc21` came in with a melting point of 165 to 171 °C. Take `Oc1ccccc1C=Nc1cccc(Cl)c1Cl`: the melting point lay in the range of 89 to 90 °C. Take `CC(=O)Oc1ccccc1C(=O)Nc1ccc(-n2nc(C(F)(F)F)cc2C(F)(F)F)cc1`: the melting point was in the range of 159 to 161 °C. Then `N#Cc1cc([N+](=O)[O-])ccc1Oc1c(F)c(F)cc(F)c1F`, with 152 to 154 °C. For `CC1(C2CCCC2)Cc2cc(OCCCC#N)c(Cl)c(Cl)c2C1=O` (centres undefined) the value was 112 °C; for `Cc1c(CCN(C)C(=O)OC(C)(C)C)c2cc(S(=O)(=O)c3cc(F)cc(F)c3)ccc2n1C`, 158 to 162 °C; for `O=C1c2ccccc2SC(O)(c2ccccc2)C2CCCN12` (centres undefined), 137 to 141 °C. For the molecule `CC(C)C[C@H](NC(=O)OC(C)(C)C)C(=O)C=[N+]=[N-]`, the melting point was in the range of 72 to 74 °C.

For `Cc1ccc(C(=O)NCC(O)CO)cc1-n1c(C)cc(OCc2ccccc2CNC(=O)Nc2cc(C(C)(C)C)nn2-c2cccc(OCCO)c2)c(Cl)c1=O` (centres undefined), the melting point is 158 to 160 °C. Regarding `CN1C(=O)N(CC(COc2ccc(-c3cccc(C#N)c3)cc2)N(O)C=O)C(=O)C1(C)C` (centres undefined), the melting point lay within 130 to 132 °C. In turn, `O=C1c2c(Cl)cccc2-n2cnc(-c3noc(C(F)(F)F)n3)c2[C@@H]2CCCN12` displayed a melting point of 220 to 221 °C. `CC(Oc1ccc([N+](=O)[O-])cc1)C(=O)OCCOC(=O)C(C)Oc1ccc([N+](=O)[O-])cc1` (centres undefined) displayed a melting point of 118 to 120 °C. Then `CC1=C(C(=O)c2ccc(C#N)cc2)C(=O)C2C=CC=CC2C1=O` (centres undefined), with 185 to 186 °C; and `O=C(CC12CC3CC(CC(C3)C1)C2)Nc1ccccc1Cl`, with 122 to 124 °C. Regarding `COC(=O)CCCNC1(c2ccccc2Cl)C(=O)Nc2ccc(Cl)cc21` (centres undefined), the melting point is 142 °C. For `CCOc1cc(C(CC#N)N2Cc3c(Cl)ccc(NC(=O)C4CC4)c3C2=O)ccc1OC` (centres undefined) the value was 200 to 202 °C; for `COc1cc(OC)c(/C=C/S(=O)(=O)Cc2cnc(OC)c([N+](=O)[O-])c2)c(OC)c1`, 183 to 186 °C. On to `Cc1[nH]cc2c(=O)n(-c3ccc(Cl)cc3)nc-2c1-c1ccc(-c2cccnc2)cc1`, for which the melting point is 308 to 309 °C. Molecule `CC(=O)N1CCC(NC(=O)Nc2ccc(C(F)(F)F)cc2)CC1` registered a melting point of 240 to 248 °C. Molecule `O=C(O)c1nc2cc(N3CCN(c4ccc(F)cc4)CC3)c([N+](=O)[O-])cc2[nH]c1=O` came in with a melting point of 236 to 238 °C. The molecule `Nc1nc2c(s1)CCN(CC=Cc1cccc([N+](=O)[O-])c1)CC2` registered a melting point of 165 to 168 °C.

Take `COc1ccccc1N1CCN(CCNc2ccccn2)CC1`: the melting point was in the range of 89 to 94 °C.

`O=C(NC1=NCCC1)Nc1ccc(Cl)cc1`: the melting point is 147 to 150 °C. As for `O=C1CC(c2ccc(Cl)cc2Cl)Oc2ccccc21` (centres undefined), the melting point was in the range of 91 to 92 °C. Then `CCOP(=O)(OCC)C1(P(=O)(OCC)OCC)CC(C(=O)c2ccccc2)=NN1`, with 134 °C.

`Cc1cc(F)cc2c1CC/C2=C\C(N)=O` gave a melting point of 178 to 180 °C. For `Cc1cc(C)cc(Nc2nccc(-n3ccnc3-c3ccccc3)n2)c1` the value was 183 °C; for `CC(=O)Nc1c(C(=O)c2cccc([N+](=O)[O-])c2)[nH]c2cc(Cl)ccc12`, 246 to 250 °C.

Molecule `CCOC(=O)CCCCN1CCc2ccc(NS(=O)(=O)c3ccccc3)cc2C1` had a melting point of 120 to 121 °C.

The record behind these values is a melting point compilation (Tetko et al.; mined from patent text by program, amines drawn as free bases though some values may be those of a salt).
